From ChEMBL document CHEMBL4000193, “Discovery of a Chemical Probe Bisamide (CCT251236): An Orally Bioavailable Efficacious Pirin Ligand from a Heat Shock Transcription Factor 1 (HSF1) Phenotypic Screen” (J Med Chem, 2017) come the findings set out here.

One series concerns SK-OV-3. The series can be described thus: cells. The note with it: Homo sapiens, SK-OV-3, 96 h, read-out: pGI50 (converted).
A short description of series [1]: Drug uptake in NCr nude mouse tumor xenografted with human SKOV3 cells at 20 mg/kg, po qd measured after 33 days. The format is ADME, organism-based, Neoplasm. Particulars: read-out: Drug uptake. A general note: A xenograft is tissue or cells of one species grown in another, often human tumour cells in immunodeficient mice.
A further series concerns WM 266-4. Description: Anti-migratory activity against human WM266.4 cells at 1 to 1000 nM after 30 hrs by scratch-wound assay. The format is functional, cell-based.

Activity calls are given as the source filed them. No cut-off for these calls is given here.

Description for SK-OV-3: Antiproliferative activity against human SKOV3 cells after 96 hrs by CellTiter Blue assay

For the molecule `Cc1ccc(NC(=O)c2ccc3c(c2)OCCO3)cc1NC(=O)c1ccc2nc(OCCN3CCCCC3)ccc2c1`, in the series with SK-OV-3, the GI50 was 1.07 nM.

As for `Cc1ccc(NC(=O)c2ccc3c(c2)OCCO3)cc1NC(=O)c1ccc2nc(OCCN3CCCC3)ccc2c1`, the concentration at […] in series [1] is 940 nM. On to `Cc1ccc(NC(=O)c2cccc3c2OCCO3)cc1NC(=O)c1ccc2nc(OCCN3CCCC3)ccc2c1`, for which, in the series on WM 266-4, the outcome was inactive.
